Source: PubChem BioAssay (NCI)
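Method: 48-hour compound exposure of cells in 96-well plates, five concentrations, linear interpolation of endpoints. GI50 is the concentration that inhibits growth by half. TGI denotes the concentration required for complete inhibition of growth.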

How the values were obtained:
Assay in all cases: inhibition of tumour cell growth, NCI panel, 48 h
CCRF-CEM leukemia = test system: CCRF-CEM leukemia
DU-145 prostate = test system: DU-145 prostate
EKVX NSCLC = test system: EKVX NSCLC
HS 578T breast = test system: HS 578T breast
HT29 colon = test system: HT29 colon
M14 melanoma = test system: M14 melanoma
OVCAR-8 ovarian = test system: OVCAR-8 ovarian
T-47D breast = test system: T-47D breast
U251 CNS = test system: U251 CNS
UACC-257 melanoma = test system: UACC-257 melanoma

## CCCCc1n(Cc2ccc3ccccc3n2)cc[n+]1Cc1ccc2ccccc2c1
CCRF-CEM leukemia
  GI50: 1.04 µM
  TGI: 4.61 µM
DU-145 prostate
  GI50: 1.44 µM
  TGI: 7.98 µM
EKVX NSCLC
  GI50: 1.4 µM
  TGI: 11.8 µM
HS 578T breast
  GI50: 1.33 µM
  TGI: 4.07 µM
HT29 colon
  GI50: 0.592 µM
  TGI: 2.85 µM
M14 melanoma
  GI50: 0.769 µM
  TGI: 2.45 µM
OVCAR-8 ovarian
  GI50: 1.03 µM
  TGI: 3.17 µM
T-47D breast
  GI50: 0.337 µM
  TGI: 2.57 µM
U251 CNS
  GI50: 0.661 µM
  TGI: 2.06 µM
UACC-257 melanoma
  GI50: 0.438 µM
  TGI: 1.62 µM

## COc1ccc(/C=N/C2=NNC(C)(c3ccccc3O)N2C(Cc2c[nH]c3ccccc23)C(=O)O)cc1 (centres undefined)
CCRF-CEM leukemia
  GI50: 3.04 µM
  TGI: 40.4 µM
DU-145 prostate
  GI50: 4.13 µM
  TGI: 17.8 µM
EKVX NSCLC
  GI50: 1.96 µM
  TGI: 10.8 µM
HS 578T breast
  GI50: 2.83 µM
  TGI: 21.7 µM
HT29 colon
  GI50: 2.36 µM
  TGI: 9.51 µM
M14 melanoma
  GI50: 2.35 µM
  TGI: 8.77 µM
OVCAR-8 ovarian
  GI50: 3.23 µM
  TGI: 16 µM
T-47D breast
  GI50: 1.55 µM
  TGI: 12.2 µM
U251 CNS
  GI50: 3.44 µM
  TGI: 11.6 µM
UACC-257 melanoma
  GI50: 3.53 µM
  TGI: 10.8 µM

## CCN1Cc2c(/C=C/c3ccccc3)nc3ccc(OC)cc3c2N(c2cccc(Cl)c2)C1
CCRF-CEM leukemia
  GI50: 2.17 µM
  TGI: 5.84 µM
DU-145 prostate
  GI50: 1.94 µM
  TGI: 3.47 µM
EKVX NSCLC
  GI50: 1.79 µM
  TGI: 3.9 µM
HS 578T breast
  GI50: 1.75 µM
  TGI: 4.88 µM
HT29 colon
  GI50: 1.45 µM
  TGI: 3.03 µM
M14 melanoma
  GI50: 2.04 µM
  TGI: 4 µM
OVCAR-8 ovarian
  GI50: 1.84 µM
  TGI: 4.29 µM
T-47D breast
  GI50: 1.74 µM
  TGI: 4.18 µM
U251 CNS
  GI50: 1.71 µM
  TGI: 3.3 µM
UACC-257 melanoma
  GI50: 1.75 µM
  TGI: 4.22 µM

## CCN(CC)CCC(CNc1c(C)cnc2cc(Cl)ccc12)c1ccc(Cl)c(Cl)c1 (centres undefined)
CCRF-CEM leukemia
  GI50: 2.81 µM
  TGI: 9.31 µM
DU-145 prostate
  GI50: 9.2 µM
  TGI: 22 µM
EKVX NSCLC
  GI50: 3.21 µM
  TGI: 14.2 µM
HS 578T breast
  GI50: 4.26 µM
  TGI: 23.1 µM
HT29 colon
  GI50: 1.14 µM
  TGI: 10.1 µM
M14 melanoma
  GI50: 1.82 µM
  TGI: 3.63 µM
OVCAR-8 ovarian
  GI50: 9.89 µM
  TGI: 24.9 µM
T-47D breast
  GI50: 2.22 µM
  TGI: 7.08 µM
U251 CNS
  GI50: 2.27 µM
  TGI: 5.43 µM
UACC-257 melanoma
  GI50: 2.08 µM
  TGI: 3.93 µM

## COC(=O)C1OC(SCCN)C(O)C(O)C1O (centres undefined)
CCRF-CEM leukemia
  TGI: > 100 µM
DU-145 prostate
  TGI: > 100 µM
EKVX NSCLC
  TGI: > 100 µM
HS 578T breast
  TGI: > 100 µM
HT29 colon
  TGI: > 100 µM
M14 melanoma
  TGI: > 100 µM
OVCAR-8 ovarian
  TGI: > 100 µM
T-47D breast
  TGI: > 100 µM
U251 CNS
  TGI: > 100 µM
UACC-257 melanoma
  TGI: > 100 µM

## COc1cc(NC(=O)c2cc3ccccc3cc2O)c(OC)cc1Cl
CCRF-CEM leukemia
  GI50: 2.61 µM
  TGI: > 20.5 µM
DU-145 prostate
  GI50: 2.67 µM
  TGI: 8.07 µM
EKVX NSCLC
  GI50: 1.29 µM
  TGI: 5.01 µM
HS 578T breast
  GI50: 2.11 µM
  TGI: 8.85 µM
HT29 colon
  GI50: 2.89 µM
  TGI: 19.8 µM
M14 melanoma
  GI50: 2.74 µM
  TGI: > 100 µM
OVCAR-8 ovarian
  GI50: 2.84 µM
  TGI: > 32.8 µM
T-47D breast
  GI50: 1.8 µM
  TGI: 6.15 µM
U251 CNS
  GI50: 1.87 µM
  TGI: 5.23 µM
UACC-257 melanoma
  GI50: 2.05 µM
  TGI: 5.55 µM

## Cn1c(=O)c2[nH]c(CCS)nc2n(C)c1=O
CCRF-CEM leukemia
  TGI: > 100 µM
DU-145 prostate
  TGI: > 100 µM
EKVX NSCLC
  TGI: > 100 µM
HS 578T breast
  TGI: 99.7 µM
HT29 colon
  TGI: > 100 µM
M14 melanoma
  TGI: > 100 µM
OVCAR-8 ovarian
  TGI: > 100 µM
T-47D breast
  TGI: > 100 µM
U251 CNS
  TGI: > 100 µM
UACC-257 melanoma
  TGI: > 100 µM

## CCN(CC)CCOc1ccccc1-n1c(C)ccc1-c1ccccc1
CCRF-CEM leukemia
  GI50: 18.7 µM
  TGI: 48.6 µM
DU-145 prostate
  GI50: 17.3 µM
  TGI: 32.3 µM
EKVX NSCLC
  GI50: 15.8 µM
  TGI: 33.6 µM
HS 578T breast
  GI50: 12.8 µM
  TGI: 35.9 µM
HT29 colon
  GI50: 6.22 µM
  TGI: 20.8 µM
M14 melanoma
  GI50: 17 µM
  TGI: 34.2 µM
OVCAR-8 ovarian
  GI50: 16.7 µM
  TGI: 33.4 µM
T-47D breast
  GI50: 15.7 µM
  TGI: 34.7 µM
U251 CNS
  GI50: 13.4 µM
  TGI: 27.4 µM
UACC-257 melanoma
  GI50: 16.2 µM
  TGI: 31.8 µM

## O=C1c2ccccc2-c2c1c1ccc3ccccc3c1n2-c1ccccc1
CCRF-CEM leukemia
  GI50: > 100 µM
  TGI: > 100 µM
DU-145 prostate
  GI50: 39 µM
  TGI: > 100 µM
EKVX NSCLC
  GI50: 40 µM
  TGI: > 100 µM
HS 578T breast
  GI50: 18 µM
  TGI: 39.2 µM
HT29 colon
  GI50: > 100 µM
  TGI: > 100 µM
M14 melanoma
  GI50: 94.1 µM
  TGI: > 100 µM
OVCAR-8 ovarian
  GI50: 23 µM
  TGI: 54.7 µM
T-47D breast
  GI50: 12.7 µM
  TGI: 41.5 µM
U251 CNS
  GI50: 18.9 µM
  TGI: 35.7 µM
UACC-257 melanoma
  GI50: 64.8 µM
  TGI: > 100 µM

## COc1ccc(-n2nc(C(=O)NCC(=O)Nc3nc4cc(OC)ccc4s3)c3ccccc3c2=O)cc1
CCRF-CEM leukemia
  GI50: > 100 µM
  TGI: > 100 µM
DU-145 prostate
  GI50: 0.919 µM
EKVX NSCLC
  GI50: 1.96 µM
  TGI: 14.8 µM
HS 578T breast
  GI50: 2.54 µM
  TGI: > 100 µM
HT29 colon
  GI50: 0.441 µM
  TGI: 1.78 µM
M14 melanoma
  GI50: 2.37 µM
  TGI: > 42.9 µM
OVCAR-8 ovarian
  GI50: 0.533 µM
  TGI: 2 µM
T-47D breast
  GI50: 0.927 µM
  TGI: 5.81 µM
U251 CNS
  GI50: 0.448 µM
  TGI: 1.73 µM
UACC-257 melanoma
  GI50: 1.28 µM
  TGI: 5.07 µM
